We go through six molecules from US20240262803A1, “COMPOUNDS, COMPOSITIONS AND METHODS OF TREATING DISORDERS” (Chungdu Anticancer Bioscience Ltd, priority 2021, published 2024).

What all share (type): cell-based
In assay [1] the test system is breast cancer cell line MDA-MB-231. As to the kind of experiment: Minimal effective concentration that elicits polyploidy, MDA-MB-231. As to conditions: Homo sapiens, read-out: MECP: Minimal effective concentration that elicits polyploidy.
In assay [2] the test system is cervical cancer cell line Hela. As to the kind of experiment: MTT assay of cellular proliferation, Hela. As to conditions: Homo sapiens, read-out: EC50: Concentration that inhibits 50% of proliferation. The method, then:
(§1) Six lung cancer cell lines (NCI-H23, NCI-H460, NCI-H596, NCI-H2170, Calu-6 and A549), two colon cancer cell lines (HCT116 and SW460), one breast cancer cell line MDA-MB-231, one gastric cancer cell line NCI-N87, one prostate cancer cell line DU145, one cervical cancer cell line Hela, and one glioblastoma cell line T98G were obtained from ATCC. The T2 HCC cell line was derived from a mouse liver cancer model initiated by a transgene of MYC (Reference). All cell lines were cultured in DMEM (Gibco, Cleveland, TN, USA) supplemented with 5% fetal bovine serum (Gibco), penicillin (100 U/mL)-streptomycin (100 μg/mL) (Gibco, Cat. No. 15140-122), 2 mM L-glutamine (Gibco, 200 mM solution, Cat. No. 25030081), and 1 mM sodium pyruvate (Gibco, 100 mM solution, Cat. No. 11360070) at 37° C. in a humidified incubator that was maintained at 5% CO2.
(§2) The MTT assay measures cellular metabolic activity as a proxy for cell viability and involves the conversion of the water-soluble yellow dye MTT [3-(4,5-dimethylthiazol-2-yl)-2,5-diphenyltetrazolium bromide] into an insoluble purple formazan by the action of mitochondrial reductase. Formazan is then solubilized and its concentration is determined by measuring the optical density (OD) value at a wavelength of 570 nm. The value is in proportional to the number of live cells with excellent linearity up to ˜10^6 cells per well. The MTT assay was used to determine the EC50 value, the concentration of a compound that leads to 50% inhibition of cellular proliferation. Briefly, cells were split when growing to the mid-Log phase. Cells in 100 μL of culture medium were seeded into each well of 96-well microplates and cultivated for 15˜24 hours to reach a confluence of 20˜30% and were then exposed to drugs at concentrations ranging from 1 nM to 10 μM. At the endpoint, 20 μL of a MTT stock solution in DMSO (5 mg/mL) was added to each well that contains […] of DMEM. The microplates were left in the cell culture incubator for 3˜4 h before subjected to solubilization and determination of formazan at A570 in a microplate reader (BioTek ELX808iu). […] Therefore, these compounds might hold a broad utility in the treatment of a large variety of human malignancies.

Assay [3] concerns breast cancer cell line MDA-MB-231. As to the kind of experiment: MTT assay of cellular proliferation, MDA-MB-231. The note with it: Homo sapiens, read-out: EC50: Concentration that inhibits 50% of proliferation. On the procedure:
as §1, §2
(In general: Tetrazolium assays rely on reduction of a dye to a coloured formazan, in cell work by metabolically active cells.)

Assay [4] has as its system cervical cancer cell line Hela. As to the kind of experiment: Minimal effective concentration that elicits polyploidy, Hela. The note with it: Homo sapiens, read-out: MECP: Minimal effective concentration that elicits polyploidy.
Assay [5] has as its system RPEMYC^H2B-GFP cells. As to the kind of experiment: Mechanism-informed phenotypic screening assay (mitotic arrest, polyploidy; GE IN-Cell Analyzer 2000). The note with it: 20 nM to 20 μM, 24, 48 or 72 hours, read-out: Mitotic Arrest (≥5%).
Assay [6] relates to liver cancer cell line T2 HCC. As to the kind of experiment: MTT assay of cellular proliferation, T2 HCC. The note with it: Mus musculus, read-out: EC50: Concentration that inhibits 50% of proliferation. On the procedure:
as §1, §2

Assay [7] relates to gastric cancer cell line NCI-N87. Description: Minimal effective concentration that elicits polyploidy, NCI-N87. The note with it: Homo sapiens, read-out: MECP: Minimal effective concentration that elicits polyploidy.
Assay [8] has the same test system. Description: MTT assay of cellular proliferation, NCI-N87. As to conditions: Homo sapiens, read-out: EC50: Concentration that inhibits 50% of proliferation. The method, then: as §1, §2
In assay [9] the test system is lung cancer cell line A549. As to the kind of experiment: Minimal effective concentration that elicits polyploidy, A549. The note with it: Homo sapiens, read-out: MECP: Minimal effective concentration that elicits polyploidy.
In assay [10] the test system is colon cancer cell line HCT116. Description: MTT assay of cellular proliferation, HCT116. As to conditions: Homo sapiens, HCT-116, read-out: EC50: Concentration that inhibits 50% of proliferation. The method, then:
as §1, §2

For assay [11], the system named is colon cancer cell line SW460. Description: MTT assay of cellular proliferation, SW460. As to conditions: Homo sapiens, SW480; read-out: EC50: Concentration that inhibits 50% of proliferation. The method, then:
as §1, §2

The subject of assay [12] is colon cancer cell line HCT116. Description: Minimal effective concentration that elicits polyploidy, HCT116. The note with it: Homo sapiens, HCT-116, read-out: MECP: Minimal effective concentration that elicits polyploidy.
Assay [13] has as its system liver cancer cell line T2 HCC. Description: Minimal effective concentration that elicits polyploidy, T2 HCC. The note with it: Mus musculus, read-out: MECP: Minimal effective concentration that elicits polyploidy.
The test system of assay [14] is lung cancer cell line NCI-H23. As to the kind of experiment: Minimal effective concentration that elicits polyploidy, NCI-H23. As to conditions: Homo sapiens, read-out: MECP: Minimal effective concentration that elicits polyploidy.
Assay [15] deals with SW480. As to the kind of experiment: Minimal effective concentration that elicits polyploidy, SW480. The note with it: Homo sapiens, read-out: MECP: Minimal effective concentration that elicits polyploidy.
The subject of assay [16] is lung cancer cell line A549. As to the kind of experiment: MTT assay of cellular proliferation, A549. As to conditions: Homo sapiens, read-out: EC50: Concentration that inhibits 50% of proliferation. On the procedure:
as §1, §2

Assay [17] concerns lung cancer cell line NCI-H23. As to the kind of experiment: MTT assay of cellular proliferation, NCI-H23. The note with it: Homo sapiens, read-out: EC50: Concentration that inhibits 50% of proliferation. On the procedure:
as §1, §2

Assay [18] concerns RPEMYC^H2B-GFP cells. Description: Mechanism-informed phenotypic screening assay (mitotic arrest, polyploidy; GE IN-Cell Analyzer 2000). As to conditions: 20 nM to 20 μM, 24, 48 or 72 hours, read-out: Min. Effective conc. for polyploidy (≥5%). The gist of the method:
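RPEMYC^H2B-GFP cells expressing Histone 2B-EGFP were treated with compounds at 20 nM to 20 μM. Mitotic arrest and DNA content were imaged at 24, 48 or 72 h. Minimal effective concentrations eliciting polyploidy are given as letter bins.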

Where two headings read alike, the source gives them in different places.

Turning to `CNC(=O)c1cc(Oc2ncccc2-c2ccnc(C)c2)cc(C(F)(F)F)c1` [Compound 37, N-methyl-3-((2′-methyl-[3,4′-bipyridin]-2-yl)oxy)-5-(trifluoromethyl)benzamide], the minimal effective concentration was 0.001 to 1 µM in assay [1]; 0.001 to 1 µM in assay [4]; 1 µM in assay [5]; 0.001 to 1 µM in assay [7]; 0.001 to 1 µM in assay [9]; 0.001 to 1 µM in assay [12]. In addition, the minimal effective concentration in assay [13] was 0.001 to 1 µM; in [14], 0.001 to 1 µM; in assay [15], 0.001 to 1 µM; in assay [18], 1 µM. In addition, the EC50 in [2], in [3], in [6], in [8], in assay [10] and in assay [11] was 1 to 1000 nM throughout. Further, the EC50 in [16] and in assay [17] was 1 to 1000 nM each time.

On to `COc1cc(Oc2ncccc2-c2ccnc(OC)c2)cc(-n2cccn2)c1` [Compound 31, 2′-methoxy-2-(3-methoxy-5-(1H-pyrazol-1-yl)phenoxy)-3,4′-bipyridine], for which the minimal effective concentration was 0.001 to 1 µM in [1]; 0.001 to 1 µM in [4]; 1 µM in [5]; 0.001 to 1 µM in [7]; 0.001 to 1 µM in [9]; 0.001 to 1 µM in assay [12]. For the same molecule, the minimal effective concentration in assay [13] is 0.001 to 1 µM; in assay [14], 0.001 to 1 µM; in assay [15], 0.001 to 1 µM; in assay [18] it was 1 µM. Moreover, the EC50 in assay [2], in [3], in assay [6], in assay [8], in [10] and in assay [11] was 1 to 1000 nM in each case. The EC50 in [16] and in assay [17] was 1 to 1000 nM in each case.

Regarding `COc1cc(NC(C)=O)cc(Oc2ncccc2-c2ccnc(OC)c2)c1` [Compound 34], the minimal effective concentration in [1] is 0.001 to 1 µM; in assay [4], 0.001 to 1 µM; in assay [5] it was 1 µM; in assay [7], 0.001 to 1 µM; in [9], 0.001 to 1 µM; in [12], 0.001 to 1 µM. Moreover, the minimal effective concentration in assay [13] was 0.001 to 1 µM; in [14], 0.001 to 1 µM; in [15], 0.001 to 1 µM; in [18] it was 1 µM. Besides, the EC50 in [2], in assay [3], in [6], in [8], in assay [10] and in assay [11] was 1 to 1000 nM each time. For the same molecule, the EC50 in assay [16] and in [17] was 1 to 1000 nM in each case.

For the molecule `CNC(=O)c1cc(Oc2ncccc2-c2ccncc2)cc(C(F)(F)F)c1` [Compound 8, 3-([3,4′-bipyridin]-2-yloxy)-N-methyl-5-(trifluoromethyl)benzamide], the minimal effective concentration in assay [1] was 0.001 to 1 µM; in assay [4], 0.001 to 1 µM; in assay [5], 1 µM; in [7] it was 0.001 to 1 µM; in assay [9], 0.001 to 1 µM; in assay [12], 0.001 to 1 µM. The minimal effective concentration is 0.001 to 1 µM in [13], 0.001 to 1 µM in assay [14], 0.001 to 1 µM in [15] and 1 µM in assay [18]. Moreover, the EC50 in assay [2], in assay [3], in assay [6], in assay [8], in [10] and in assay [11] was 1 to 1000 nM throughout. Also, the EC50 in [16] and in assay [17] was 1 to 1000 nM in each case.

Consider `CNC(=O)c1cc(OC)cc(Oc2ncccc2-c2ccnc(OC)c2)c1` [Compound 27, 3-methoxy-5-((2′-methoxy-[3,4′-bipyridin]-2-yl)oxy)-N-methylbenzamide], for which the minimal effective concentration in assay [1] was 0.001 to 1 µM; in assay [4], 0.001 to 1 µM; in [5], 1 µM; in assay [7], 0.001 to 1 µM; in assay [9] it was 0.001 to 1 µM; in assay [12], 0.001 to 1 µM. Moreover, the minimal effective concentration in assay [13] is 0.001 to 1 µM; in [14], 0.001 to 1 µM; in [15], 0.001 to 1 µM; in assay [18], 1 µM. Also, the EC50 in assay [2], in assay [3], in assay [6], in assay [8], in assay [10] and in assay [11] was 1 to 1000 nM throughout. For the same molecule, the EC50 in assay [16] and in assay [17] was 1 to 1000 nM throughout.

Consider `COc1cc(OC)cc(Oc2nccnc2-c2ccnc(OC)c2)c1` [Compound 35, 2-(3,5-dimethoxyphenoxy)-3-(2-methoxypyridin-4-yl)pyrazine], for which the minimal effective concentration in assay [1] was 0.001 to 1 µM; in assay [4], 0.001 to 1 µM; in assay [5], 1 µM; in assay [7] it was 0.001 to 1 µM; in assay [9] it was 0.001 to 1 µM; in assay [12], 0.001 to 1 µM. Further, the minimal effective concentration in [13] was 0.001 to 1 µM; in [14], 0.001 to 1 µM; in assay [15], 0.001 to 1 µM; in assay [18] it was 1 µM. The EC50 in assay [2], in assay [3], in [6], in [8], in assay [10] and in assay [11] was 1 to 1000 nM in each case. Also, the EC50 in assay [16] and in [17] was 1 to 1000 nM each time.
